Source: patent US11149066B2, “Thrombospondin 1-binding peptide” (DAIICHI SANKYO COMPANY, LIMITED, priority 2016, dated 2021)
pIC50, pKd: −log10 of the molar value. Positions of bridges follow the written chain, without caps; N, C: chain ends. Non-standard residues stand in square brackets, D forms with d. Residues, ends and D or L forms follow the SMILES beside them. 2Nal = N[C@@H](Cc1ccc2ccccc2c1)C(=O)O; Nle = CCCC[C@H](N)C(=O)O

Assays:
human TSP1 [1] = target: T1, human TSP1 (Homo sapiens, UniProt P07996); assay: Interaction analysis by SPR (Biacore T200); assay type: binding; settings: single-cycle kinetics, 25° C., KD from ka and kd
Method: (Test Example 2) Interaction Analysis by SPR
Interaction analysis by SPR was performed using Biacore T200 (produced by GE Healthcare).
I. Immobilization of Recombinant-hTSP1
First, 500 μM NiCl2 was injected over an NTA-Chip (produced by GE Healthcare, BR100532) at a flow rate of 5 μL/min. for 1 minute to thereby activate NTA groups. Then, an EDC/NHS mixture was injected at a flow rate of 10 μL/min. for 7 minutes to thereby activate the carboxyl groups of dextran. Recombinant-hTSP1 was injected at a flow rate of 10 μL/min. for 7 minutes to immobilize the TSP1 on the substrate surfaces with activated NTA and carboxyl groups. Ethanolamine was injected at a flow rate of 10 μL/min. for 7 minutes to thereby deactivate unreacted, activated carboxyl groups.
The immobilization buffer used was prepared by diluting 10×HBS-P+(produced by GE Healthcare, BR100671) to 1-fold and adding 5 mM CaCl2.
The reagents EDC/NHS/ethanolamine used were included in the Amine-coupling kit (BR100050) commercially available from GE Healthcare.
The measurement buffer was prepared based on the following composition profile:
The measurement was performed in the following steps.
For the purpose of equilibrating substrate surfaces, the measurement buffer was injected under the following conditions:
contact time: 60 sec., dissociation time: 120 sec., flow rate: 50 μL/min., temperature: 25° C.
The injection under the same conditions was repeated five times to ensure equilibration.
Since Biacore T200 is highly responsive to change in DMSO concentrations, DMSO solutions were sequentially injected at concentrations of 4%, 4.4%, 4.8%, 5.2%, 5.6%, and 6% to correct for DMSO effects.
The method adopted for sample measurement was a single-cycle kinetics method which is effective for samples showing low dissociative behavior. The advantage of this method is that since sample solutions at different concentration regions are injected in the same cycle, the influence between different cycles in association with low dissociation can be ignored in the analysis.
A 3-fold diluted series of sample solutions were prepared in five concentrations (100, 33, 11, 3.7 and 1.2 nM), and sequentially injected at a flow rate of 50 μL/min. for 3 minutes in the order from lowest to highest concentration. After the highest concentration of diluted solution was injected, a dissociation time of 20 to 30 minutes was spent.
Before samples were measured, the measurement buffer was injected alone under the same conditions to establish a baseline.
The analysis was conducted using the evaluation software provided with Biacore T100 and T200. A DMSO correction curve obtained by solvent correction measurements was applied for the analysis. Kinetics fitting was done on the difference data obtained by subtracting the baseline data from sample measurement data.
KD values were calculated based on the association rate constant (ka) and dissociation rate constant (kd).
Target sequence in this assay (P07996 19-1170): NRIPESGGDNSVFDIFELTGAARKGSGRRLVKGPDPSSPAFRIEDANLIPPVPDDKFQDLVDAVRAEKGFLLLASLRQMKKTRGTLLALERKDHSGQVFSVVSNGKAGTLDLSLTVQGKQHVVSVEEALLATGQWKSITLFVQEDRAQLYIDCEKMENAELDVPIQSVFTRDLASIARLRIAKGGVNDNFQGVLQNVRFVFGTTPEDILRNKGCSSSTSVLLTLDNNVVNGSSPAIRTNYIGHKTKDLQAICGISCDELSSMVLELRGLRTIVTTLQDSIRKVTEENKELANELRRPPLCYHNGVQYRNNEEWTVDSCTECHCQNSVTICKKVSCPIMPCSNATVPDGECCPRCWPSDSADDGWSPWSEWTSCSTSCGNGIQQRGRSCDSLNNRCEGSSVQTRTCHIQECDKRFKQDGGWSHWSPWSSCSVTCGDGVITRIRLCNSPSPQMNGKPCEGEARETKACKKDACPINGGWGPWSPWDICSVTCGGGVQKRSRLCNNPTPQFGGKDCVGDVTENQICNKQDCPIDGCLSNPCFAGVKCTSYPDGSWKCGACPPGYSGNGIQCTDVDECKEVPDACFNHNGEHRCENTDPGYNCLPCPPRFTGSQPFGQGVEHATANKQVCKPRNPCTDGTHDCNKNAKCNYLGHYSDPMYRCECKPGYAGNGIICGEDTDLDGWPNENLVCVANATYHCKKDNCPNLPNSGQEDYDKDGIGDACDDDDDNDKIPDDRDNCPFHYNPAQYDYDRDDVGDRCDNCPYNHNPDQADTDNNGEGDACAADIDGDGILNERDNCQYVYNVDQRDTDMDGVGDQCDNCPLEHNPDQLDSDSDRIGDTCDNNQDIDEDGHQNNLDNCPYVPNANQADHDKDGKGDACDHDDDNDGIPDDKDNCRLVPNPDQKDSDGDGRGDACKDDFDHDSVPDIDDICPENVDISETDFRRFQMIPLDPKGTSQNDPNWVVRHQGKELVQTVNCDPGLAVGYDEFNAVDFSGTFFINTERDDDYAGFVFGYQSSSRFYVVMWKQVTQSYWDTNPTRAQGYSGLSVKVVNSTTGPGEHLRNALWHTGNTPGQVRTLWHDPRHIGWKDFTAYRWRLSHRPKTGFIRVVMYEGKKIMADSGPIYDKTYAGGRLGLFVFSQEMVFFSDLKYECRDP

human TSP1 [2] = target: T1, human TSP1; assay: Cell adhesion inhibition assay (HUVEC adhesion to TSP1-coated plate); assay type: cell-based; settings: HUVEC adhesion to human platelet thrombospondin-coated plate, 2.5 hours, CellTiter-Glo; read-out: Cell adhesion IC50
Procedure, shortened: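 Plates coated overnight at 4 °C with 10 μg/mL human platelet TSP1 in TBS + 2 mM CaCl2, blocked with Lipidure, then preincubated 15–30 min with samples in DMEM/0.5% BSA. HUVECs (10000 cells/well) adhered for 2.5 h at 37 °C; adherent cells quantified by CellTiter-Glo luminescence and IC50 (nM) calculated.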
Target sequence in this assay (P07996 19-1170 limits assumed): as the sequence (P07996 19-1170) above

C57BL/6 mice = assay: Blood flow improvement tests (femoral artery/vein ligation and excision, laser Doppler); assay type: in vivo; settings: after 7 days of surgery; for % change (vs. vehicle): blood flow ratio ischemia/nonischemia; for %, ischemia/nonischemia: blood flow ratio of ischemic limb to non-ischemic limb, laser Doppler
Source text: (Test Example 3) Blood Flow Improvement Tests
Seven to nine-week-old male C57BL/6 mice were purchased from Charles River Laboratories Japan Inc., and acclimated over one week by feeding with a FR-2 solid diet (produced by Funabashi Farm Co., Ltd.). The rearing facility switched between light and dark modes in a 12-hour cycle with light turning on at 7 a.m and turning off at 7 p.m. Under isofluorane inhalation anaesthesia, the left thighs of the mice were dissected, and the superficial femoral arteries and veins (from just below the deep femoral arteries to the popliteal artery and vein) were ligated and excised. After animal models were made, the test substances (Compounds 24, 28, 40 to 45, and 58) were each dissolved in a solution of 20 mM lactic acid and 5% (w/v) Lutrol, and intraperitoneally injected into mice once daily.
(Blood Flow Improvement Test 1)
Compound 24 (10 mg/kg)-treated group
(Blood Flow Improvement Test 2)
Compound 28 (10 mg/kg)-treated group
(Blood Flow Improvement Test 3)
Compound 40 (10 mg/kg)-treated group
Compound 41 (10 mg/kg)-treated group
(Blood Flow Improvement Test 4)
Compound 42 (10 mg/kg)-treated group
Compound 43 (10 mg/kg)-treated group
Compound 44 (10 mg/kg)-treated group
Compound 45 (10 mg/kg)-treated group
(Blood Flow Improvement Test 5)
Compound 58 (10 mg/kg)-treated group
Blood flows were measured in ischemic (left) and non-ischemic (right) limbs using a laser Doppler perfusion imager (LDPI; PIM III, Perimed, Inc.). Blood flow values were evaluated by the ratio of ischemic limb flow to non-ischemic limb flow.
Blood flow values from the mice were the lowest immediately after surgery and then gradually recovered. All of the test substances investigated in the animal models of this study improved blood flow recovery after surgery as compared to vehicle treatment. After 7 days of surgery, the blood flows in the test substance-treated groups were higher than in the vehicle-treated mice.

Row | SMILES | pKd (human TSP1 [1]) | pIC50 (human TSP1 [2]) | % change (vs. vehicle) (C57BL/6 mice) [%] | %, ischemia/nonischemia (C57BL/6 mice) [%]
1 | CC[C@H](C)[C@@H]1NC(=O)[C@H](Cc2ccc3ccccc3c2)NC(=O)CSC[C@@H](C(N)=O)NC(=O)[C@H](C(C)C)NC(=O)[C@H](Cc2c[nH]c3ccccc23)NC(=O)[C@H](CCCCN)NC(=O)[C@H](C(C)C)NC(=O)[C@H](Cc2c[nH]c3ccccc23)NC(=O)[C@H](CC(N)=O)NC(=O)[C@H](CCCNC(=N)N)NC(=O)CNC(=O)[C@H](CO)NC1=O [Compound 24] ({CH2CO}-[2Nal]ISGRNWVKWVC-NH2; thioether N-12) | 9.92 | – | 4.9 | 41.20
2 | CC[C@H](C)[C@@H]1NC(=O)[C@H](Cc2ccc3ccccc3c2)NC(=O)CSC[C@@H](C(N)=O)NC(=O)[C@H](C(C)C)NC(=O)[C@H](Cc2c[nH]c3ccccc23)NC(=O)[C@H](CCCCN)NC(=O)[C@H](C(C)C)NC(=O)[C@H](Cc2ccc3ccccc3c2)NC(=O)[C@H](CC(N)=O)NC(=O)[C@H](CCCNC(=N)N)NC(=O)CNC(=O)[C@H](CO)NC1=O [Compound 28] ({CH2CO}-[2Nal]ISGRN[2Nal]VKWVC-NH2; thioether N-12) | – | – | 1.8 | 40.79
3 | CC[C@H](C)[C@@H]1NC(=O)[C@H](Cc2ccc3ccccc3c2)NC(=O)CSC[C@@H](C(N)=O)NC(=O)[C@H](C(C)C)NC(=O)[C@H](Cc2c[nH]c3ccccc23)NC(=O)[C@H](CCCCN)NC(=O)[C@H](C(C)C)NC(=O)[C@H](Cc2c[nH]c3ccccc23)NC(=O)[C@H](CC(=O)O)NC(=O)[C@H](CCCNC(=N)N)NC(=O)CNC(=O)[C@H](CO)NC1=O [Compound 40] ({CH2CO}-[2Nal]ISGRDWVKWVC-NH2; thioether N-12) | – | 7.79 | 6.4 | 46.53
4 | CC[C@H](C)[C@@H]1NC(=O)[C@H](Cc2ccc3ccccc3c2)NC(=O)CSC[C@@H](C(N)=O)NC(=O)[C@H](C(C)C)NC(=O)[C@H](Cc2c[nH]c3ccccc23)NC(=O)[C@H](Cc2c[nH]cn2)NC(=O)[C@H](C(C)C)NC(=O)[C@H](Cc2c[nH]c3ccccc23)NC(=O)[C@H](CC(N)=O)NC(=O)[C@H](CCCNC(=N)N)NC(=O)CNC(=O)[C@H](CO)NC1=O [Compound 41] ({CH2CO}-[2Nal]ISGRNWVHWVC-NH2; thioether N-12) | – | – | 32.7 | 58.05
5 | CC[C@H](C)[C@@H]1NC(=O)[C@H](Cc2ccc3ccccc3c2)NC(=O)CSC[C@@H](C(N)=O)NC(=O)[C@H](C(C)C)NC(=O)[C@H](Cc2c[nH]c3ccccc23)NC(=O)[C@H](CCCCN)NC(=O)[C@H](C(C)C)NC(=O)[C@H](Cc2c[nH]c3ccccc23)NC(=O)[C@H](CC(N)=O)NC(=O)[C@H](Cc2c[nH]cn2)NC(=O)CNC(=O)[C@H](CO)NC1=O [Compound 42] ({CH2CO}-[2Nal]ISGHNWVKWVC-NH2; thioether N-12) | 9.36 | – | 27.0 | 47.40
6 | CC[C@H](C)[C@@H]1NC(=O)[C@H](Cc2ccc3ccccc3c2)NC(=O)CSC[C@@H](C(N)=O)NC(=O)[C@H](C(C)C)NC(=O)[C@H](Cc2c[nH]c3ccccc23)NC(=O)[C@H](CCCCN)NC(=O)[C@H](C(C)C)NC(=O)[C@H](Cc2c[nH]c3ccccc23)NC(=O)[C@H](CC(N)=O)NC(=O)[C@H](CCCCN)NC(=O)CNC(=O)[C@H](CO)NC1=O [Compound 43] ({CH2CO}-[2Nal]ISGKNWVKWVC-NH2; thioether N-12) | 9.89 | 8.04 | 30.9 | 48.86
7 | CC[C@H](C)[C@@H]1NC(=O)[C@H](Cc2ccc3ccccc3c2)NC(=O)CSC[C@@H](C(N)=O)NC(=O)[C@H](C(C)C)NC(=O)[C@H](Cc2c[nH]c3ccccc23)NC(=O)[C@H](CCCCN)NC(=O)[C@H](C(C)C)NC(=O)[C@H](Cc2c[nH]c3ccccc23)NC(=O)[C@H](CC(N)=O)NC(=O)[C@H](CO)NC(=O)CNC(=O)[C@H](CO)NC1=O [Compound 44] ({CH2CO}-[2Nal]ISGSNWVKWVC-NH2; thioether N-12) | – | 7.52 | 10.5 | 41.25

Continued, in another order:

Row | pKd (human TSP1 [1]) | pIC50 (human TSP1 [2]) | SMILES | % change (vs. vehicle) (C57BL/6 mice) [%] | %, ischemia/nonischemia (C57BL/6 mice) [%]
8 | 9.36 | 7.56 | CC(C)[C@@H]1NC(=O)[C@H](Cc2c[nH]c3ccccc23)NC(=O)[C@H](CCCCN)NC(=O)[C@H](C(C)C)NC(=O)[C@H](Cc2c[nH]c3ccccc23)NC(=O)[C@H](CC(N)=O)NC(=O)[C@H](CCCNC(=N)N)NC(=O)CNC(=O)[C@H](CO)NC(=O)[C@H](CCCNC(=N)N)NC(=O)[C@H](Cc2ccccc2)NC(=O)CSC[C@@H](C(N)=O)NC1=O [Compound 6] ({CH2CO}-FRSGRNWVKWVC-NH2; thioether N-12) | – | –
9 | 9.92 | – | CC[C@H](C)[C@@H]1NC(=O)[C@H](Cc2ccccc2)NC(=O)CSC[C@@H](C(N)=O)NC(=O)[C@H](C(C)C)NC(=O)[C@H](Cc2c[nH]c3ccccc23)NC(=O)[C@H](CCCCN)NC(=O)[C@H](C(C)C)NC(=O)[C@H](Cc2c[nH]c3ccccc23)NC(=O)[C@H](CC(N)=O)NC(=O)[C@H](CCCCN)NC(=O)CNC(=O)[C@H](CO)NC1=O [Compound 7] ({CH2CO}-FISGKNWVKWVC-NH2; thioether N-12) | – | –
10 | 9.89 | – | CCCC[C@@H]1NC(=O)[C@H](Cc2c[nH]c3ccccc23)NC(=O)[C@H](CC(=O)O)NC(=O)[C@H](CCCNC(=N)N)NC(=O)CNC(=O)[C@H](CO)NC(=O)[C@H]([C@@H](C)CC)NC(=O)[C@H](Cc2ccc3ccccc3c2)NC(=O)CSC[C@@H](C(N)=O)NC(=O)[C@H](C(C)C)NC(=O)[C@H](Cc2c[nH]c3ccccc23)NC(=O)[C@H](CCCCN)NC1=O [Compound 45] ({CH2CO}-[2Nal]ISGRDW[Nle]KWVC-NH2; thioether N-12) | 76.0 | 65.70
11 | 10.04 | 7.80 | CCCC[C@@H]1NC(=O)[C@H](Cc2c[nH]c3ccccc23)NC(=O)[C@H](CC(=O)O)NC(=O)[C@H](CCCCN)NC(=O)CNC(=O)[C@H](CO)NC(=O)[C@H]([C@@H](C)CC)NC(=O)[C@H](Cc2ccc3ccccc3c2)NC(=O)CSC[C@@H](C(N)=O)NC(=O)[C@H](C(C)C)NC(=O)[C@H](Cc2c[nH]c3ccccc23)NC(=O)[C@H](CCCNC(=N)N)NC1=O [Compound 58] ({CH2CO}-[2Nal]ISGKDW[Nle]RWVC-NH2; thioether N-12) | 85.5 | 69.00
